{"source": "patent US11773183B2", "about": "“MUC16 monoclonal antibody and uses thereof” (QUEST PHARMATECH INC., priority 2018, dated 2023)", "test_system": "T3M4 wildtype (WT) cells", "test": "Live/Dead cell cytotoxicity assay, T3M4 wildtype cells", "format": "cell-based, human", "conditions": "24 h", "procedure": "Materials and Methods. T3M4 wildtype (WT) and COSMC deleted (SimpleCells, SC) were treated with equal amounts of mAR 9.6 (5 μg/ml) and POCmAb (5 μg/ml) or with isotype matched (either mouse or human) control IgG antibody for 24 h. For the comparison of effect of antibodies in inducing cell death, T3M4 WT cells were treated with Sapitinib (an ErbB receptor tyrosine kinase inhibitor, 5.4 μM) and LY294002 (PI3K/Akt inhibitor, 11.3 μM) alone or in combination with mAR9.6 (5 μg/ml) and POCmAb (5 μg/ml) for 24 h. The cells were washed well with cell-culture grade PBS. 20 μl ethidium homodimer-1 (EthD-1, 2 mM) was dissolved in 10 ml PBS. To this solution, 5 μl of calcein acetoxymethyl ester (calcein-AM, 4 mM) was added. 150 μl of this combined reagent was added to the cells grown on coverslip and incubated for 30-45 minutes. The numbers of live and dead cells were detected with Zeiss LSM 710™ confocal laser scanning microscope (Carl Zeiss, Inc., Thornwood, NY, USA) at Confocal Laser Scanning Fluorescence Microscope Core Facility, UNMC. The ratio of dead cells to total cells was calculated for quantitative comparisons. Unpaired Student's t-test was performed to calculate the statistical significance between the antibodies treated T3M4 WT and T3M4 SC cells (n=4) (p<0.05 considered statistically significant). Two way analysis of variance (ANOVA) was performed to calculate the statistical significance between the inhibitors and antibody treated T3M4 cells (n=4) (p<0.05 considered statistically significant).", "key": {"[1]": {"conditions": "inhibitor (Sapitinib 5.4 μM, LY294002 11.3 μM) with human IgG isotype control"}, "[2]": {"conditions": "inhibitor (Sapitinib 5.4 μM, LY294002 11.3 μM) with mouse IgG isotype control"}}}
{"smiles": "O=c1cc(N2CCOCC2)oc2c(-c3ccccc3)cccc12", "note": "[LY294002]", "values": [{"measurement": "cell death (ratio of dead cells to total cells)", "setting": "[1]", "value": "about 15%"}, {"measurement": "cell death (ratio of dead cells to total cells)", "setting": "[2]", "value": "about 15%"}]}
{"smiles": "CNC(=O)CN1CCC(Oc2cc3c(Nc4cccc(Cl)c4F)ncnc3cc2OC)CC1", "note": "[Sapitinib]", "values": [{"measurement": "cell death (ratio of dead cells to total cells)", "setting": "[1]", "value": "about 17%"}, {"measurement": "cell death (ratio of dead cells to total cells)", "setting": "[2]", "value": "about 17%"}]}
